Test results reported in patent US7732452B2, “Thiophene derivatives which are HM74A agonists” (Hoffmann-La Roche Inc., priority 2005, dated 2010).

Assays:
HM74A = molecular target: T1, HM74A (Homo sapiens, UniProt Q8TDS4); test: Secondary fluorescent calcium indicator assay (FLIPR); format: cell-based; conditions: HEK-293 cells stably expressing HM74A and chimeric G protein Gqi9; % stimulation of maximal nicotinic acid response (100 μM)
T1 construct: expressed in transfected cells; pcDNA3.1 vectors; co-expressing chimeric G protein Gqi9
Experimental: Secondary Fluorescent Calcium Indicator Assay (FLIPR)
HEK-293 cells were grown in tissue culture medium (DMEM/Nut mix F12 Medium with Glutamax I (Invitrogen), containing 10% FBS) at 37° C. in a 5% CO2 atmosphere. These cells were cultured in 6-well dishes at 3×10^5 cells/well and double transfected with DNA vectors (pcDNA3.1, Invitrogen) expressing either HM74A or HM74 and the chimeric G protein Gqi9. Two days after transfection the wells were combined and plated in 150 cm^2 flasks, in the presence of 50 μg/ml Hygromycin (Invitrogen) and 500 μg/ml Geneticin (Gibco). Fourteen days after plating, colonies were picked, expanded and analyzed for expression using a functional assay (FLIPR). Stable transfected HEK-293 cells expressing either HM74A or HM74 and the chimeric G protein Gqi9 were plated at 50,000 cells/well in black 96-well plates with clear bottom (Costar) and cultured to confluency overnight in growth media (DMEM/Nut mix F12 Medium with Glutamax I (Invitrogen), containing 10% FBS) at 37° C. in a humidified cell incubator containing 5% CO2. Growth media was aspirated and replaced with 100 μl of 1×FLIPR Calcium Assay Dye (Molecular Devices) in Hank's balanced salt solution (HBSS) containing 10 mM HEPES, and […] probenecid (Sigma), for 1 hour at 37° C. Cell plates were transferred to a FLIPR unit (Molecular Devices), and 50 μl of 3× compound dilution were added. Fluorescence emissions were measured and the effects of compounds were expressed as % stimulation of maximal nicotinic acid response (100 μM). Sigmoidal curves were fitted using the XLfit3 program (ID Business Solutions Ltd. UK) and EC50 values determined.

T1 sequence (Q8TDS4 whole entry): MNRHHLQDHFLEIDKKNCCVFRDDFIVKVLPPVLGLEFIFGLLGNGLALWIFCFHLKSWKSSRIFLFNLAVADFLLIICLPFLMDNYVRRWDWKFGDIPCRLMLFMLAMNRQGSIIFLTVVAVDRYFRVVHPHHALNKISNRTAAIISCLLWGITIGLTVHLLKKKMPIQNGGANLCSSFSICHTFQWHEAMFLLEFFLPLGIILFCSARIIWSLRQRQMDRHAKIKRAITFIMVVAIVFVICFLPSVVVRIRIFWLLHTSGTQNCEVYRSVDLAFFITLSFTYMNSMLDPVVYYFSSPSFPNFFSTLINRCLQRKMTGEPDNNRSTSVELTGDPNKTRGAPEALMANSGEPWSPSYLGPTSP

With `O=C(COc1ccc(-c2ccccc2Cl)cn1)Nc1cscc1C(=O)O` [Example 19, 4-{2-[5-(2-Chloro-phenyl)-pyridin-2-yloxy]-acetylamino}-thiophene-3-carboxylic acid] the melting point was 218 to 223 °C.
`CC(=O)c1cccc(-c2ccc(OCC(=O)Nc3cscc3C(=O)O)cc2)c1` [Example 8, 4-[2-(3′-Acetyl-biphenyl-4-yloxy)-acetylamino]-thiophene-3-carboxylic acid] gave a melting point of 212 to 214 °C.
Work on `CC(C)(C)c1ccc(OCC(=O)Nc2cscc2C(=O)O)cc1` [Example 23, 4-[2-(4-tert-Butyl-phenoxy)-acetylamino]-thiophene-3-carboxylic acid] yielded an EC50 (HM74A) of 225 nM.
`CC(=O)Nc1cccc(-c2ccc(OCC(=O)Nc3cscc3C(=O)O)cc2)c1` [Example 6, 4-[2-(3′-Acetylamino-biphenyl-4-yloxy)-acetylamino]-thiophene-3-carboxylic acid] gave a melting point of 250 to 253 °C.
Compound `O=C(COc1ccc(-c2ccc(F)cc2)cn1)Nc1cscc1C(=O)O` [Example 11, 4-{2-[5-(4-Fluoro-phenyl)-pyridin-2-yloxy]-acetylamino}-thiophene-3-carboxylic acid] has an EC50 (HM74A) of 131 nM.
`COc1ccccc1-c1ccc(OCC(=O)Nc2cscc2C(=O)O)nc1` [Example 10, 4-{2-[5-(2-Methoxy-phenyl)-pyridin-2-yloxy]-acetylamino}-thiophene-3-carboxylic acid] showed a melting point of 194 to 197 °C.
`O=C(COc1ccc(-c2ccc(F)cc2)cc1)Nc1cscc1C(=O)O` [Example 1, 4-[2-(4′-Fluoro-biphenyl-4-yloxy)-acetylamino]-thiophene-3-carboxylic acid] gave a melting point of 244 to 251 °C.
Compound `O=C(COc1ccc(-c2cccc(Cl)c2)cc1)Nc1cscc1C(=O)O` [Example 4, 4-[2-(3′-Chloro-biphenyl-4-yloxy)-acetylamino]-thiophene-3-carboxylic acid] has a melting point of 216 to 218 °C.
In the case of `Cc1ccccc1-c1ccc(OCC(=O)Nc2cscc2C(=O)O)cc1` [Example 5, 4-[2-(2′-Methyl-biphenyl-4-yloxy)-acetylamino]-thiophene-3-carboxylic acid], the melting point is reported as 207 to 209 °C.
With `O=C(COc1ccc(Cl)c(Cl)c1)Nc1cscc1C(=O)O` [Example 18, 4-[2-(3,4-Dichloro-phenoxy)-acetylamino]-thiophene-3-carboxylic acid] the melting point was 258 to 264 °C.
In the case of `COc1ccccc1-c1ccc(OCC(=O)Nc2cscc2C(=O)O)cc1` [Example 3, 4-[2-(2′-Methoxy-biphenyl-4-yloxy)-acetylamino]-thiophene-3-carboxylic acid], the melting point is reported as 196 to 199 °C.
With `COc1cccc(-c2ccc(OCC(=O)Nc3cscc3C(=O)O)cc2)c1` [Example 7, 4-[2-(3′-Methoxy-biphenyl-4-yloxy)-acetylamino]-thiophene-3-carboxylic acid] the melting point was 187 to 189 °C.
`O=C(COc1ccc(-c2ccccc2)cc1)Nc1cscc1C(=O)O` [Example 2, 4-[2-(Biphenyl-4-yloxy)-acetylamino]-thiophene-3-carboxylic acid] showed an EC50 (HM74A) of 48.7 nM and a melting point of 247 to 251 °C.
